Source: patent US20050089573A1, “Oral pharmaceutical formulation containing ibandronate” (F. HOFFMANN-LA ROCHE, priority 1996, published 2005)

Assay: clinical studies using ibandronate in rapidly releasing coated oral administration forms (tolerability)
Format: in vivo, patients
Source text: The film dissolving upon contact with digestive juice is preferably a coating which dissolves pH-independently. The adjuvant coating may be coated using methods common in pharmaceutical technology. […] This is particularly advantageous since the administration forms of the invention are also well-tolerated by patients lying in bed.

[1] = administration forms coated with a film which quickly releases the active substance

CCCCCN(C)CCC(O)(P(=O)(O)O)P(=O)(O)O [ibandronate, 1-hydroxy-3-(N-methyl-N-pentyl)aminopropyl-1,1-diphosphonic acid]
irritations in the oesophagus when swallowing the tablets [1]: no irritations in the oesophagus
oesophagitis [1]: does not occur
cases of nausea, vomiting, pain or diarrhoea (patients treated with rapidly releasing administration forms, compared to what is otherwise observed when administering aminobisphosphonates): significantly less cases
side effects observed in clinical studies (peroral forms coated with film that dissolves pH-independently, even at high dosages): no significant side effects
